Square brackets hold non-standard residues; d marks the D form. Peptide text beside a SMILES is read from it. Cya = N[C@@H](CS(=O)(=O)O)C(=O)O
System: study eye of subjects with intermediate non-exudative AMD
Assay: SD-OCT Analysis 2 (thickness, volume, map coverage of retinal layers)
Format: in vivo, human
Description: Numerous study assessments were conducted at various time points throughout the study. Included among these study assessments were; refractive eye examinations, determinations of BCVA AND low-luminance BCVA, Lanthony D-15 color vision test, measurement of intraocular pressure (IOP), Indirect ophthalmoscopy/dilated fundus examinations and spectral-domain optical coherence tomography (SD-OCT). Also, blood and saliva samples were obtained from each subject for genetic analysis. The above-listed study assessments were performed at the time points indicated in Table 1, below: The OCT scans were analyzed by two (2) unrelated experts. In Analysis #2, the OCT images of study eyes were analyzed to determine mean thickness and mean volume of numerous retinal subfields and layer segments at baseline and at Week 12 for sham eyes and at baseline and at Week 32 for risuteganib eyes, to document any significant differences between groups of eyes based on baseline measurements or changes from baseline in those measurements. In addition to the quantitative analysis of OCT images, OCT Analysis #2 included qualitative assessment of the OCT images to identify GA, pseudodrusen, and disruption of the ELM and EZ layers. FIGS. 9A, 9B and 9C illustrate the level of varying pathology within the ELM based on quantitative mapping that were also assessed, with FIG. 9A (left) showing no ELM disruption, FIG. 9B (center) showing segmental disruption, and FIG. 9C showing diffuse disruption.

[1] = change from baseline at Week 32, risuteganib super-responder eyes, n = 8
[2] = paired change from baseline at Week 32, risuteganib arm n = 24
[3] = paired difference from baseline at Week 32, risuteganib arm n = 24

## C[C@@H](O)[C@H](NC(=O)[C@H](CS(=O)(=O)O)NC(=O)CNC(=O)[C@H](CCCNC(=N)N)NC(=O)CN)C(=O)N1CCC[C@H]1C(=O)O [risuteganib, Glycyl-L-arginylglycyl-3-sulfo-L-alanyl-L-threonyl-L-proline] (H-GRG[Cya]TP-OH)
[1]
  Change in mean thickness, ELM-RPE mid subfield: −2.493 μm
  Change in mean thickness, EZ-RPE central subfield: −1.803 μm
  Change in mean thickness, EZ-RPE foveal center: 6.825 μm
  Change in mean thickness, EZ-RPE mid subfield: −1.445 μm
  Change in mean thickness, Inner retina central subfield: 8.759 μm
  Change in mean thickness, Inner retina mid subfield: 8.511 μm
  Change in mean thickness, ONL-EZ central subfield: −9.158 μm
  Change in mean thickness, ONL-EZ mid subfield: −8.556 μm
  Change in mean thickness, ONL-RPE central subfield: −10.961 μm
  Change in mean thickness, ONL-RPE foveal center: −6.825 μm
  Change in mean thickness, ONL-RPE mid subfield: −10.001 μm
  Change in mean thickness, RPE-BM central subfield: −11.226 μm
  Change in mean thickness, RPE-BM foveal center: −14.381 μm
  Change in mean thickness, RPE-BM mid subfield: −6.715 μm
  Change in mean thickness, Total retinal central subfield: −2.202 μm
  Change in mean thickness, Total retinal foveal center: −7.569 μm
  Change in mean thickness, Total retinal mid subfield: −1.490 μm
  Change in volume, ELM-EZ central subfield: −0.001 mm^3
  Change in volume, ELM-EZ mid subfield: −0.003 mm^3
  Change in volume, ELM-RPE: 0.171 mm^3
  Change in volume, ELM-RPE central subfield: −0.003 mm^3
  Change in volume, ELM-RPE mid subfield: −0.008 mm^3
  Change in volume, EZ-RPE: −0.051 mm^3
  Change in volume, EZ-RPE central subfield: −0.001 mm^3
  Change in volume, EZ-RPE mid subfield: −0.005 mm^3
  Change in volume, ONL-EZ central subfield: −0.007 mm^3
  Change in volume, ONL-EZ mid subfield: −0.027 mm^3
  Change in volume, ONL-RPE: 0.044 mm^3
  Change in volume, ONL-RPE central subfield: −0.008 mm^3
  Change in volume, ONL-RPE mid subfield: −0.032 mm^3
  Change in volume, RPE-BM: −0.048 mm^3
  Change in volume, RPE-BM central subfield: −0.009 mm^3
  Change in volume, RPE-BM mid subfield: −0.021 mm^3
  Change in volume, Total retinal: −0.247 mm^3
  Change in volume, Total retinal central subfield: −0.001 mm^3
  Change in volume, Total retinal mid subfield: −0.005 mm^3
  Map coverage, 0 μm EZ: 5.026%
  Map coverage, 0 μm RPE-BM: 1.546%
  Map coverage, 10 μm EZ: 5.037%
  Map coverage, 20 μm EZ: 4.506%
  Map coverage, 50 μm RPE-BM: −3.222%
  Map coverage, 150 μm RPE-BM: 2.943%
  Map coverage, 250 μm RPE-BM: −0.017%
[2]
  Change in mean (SD) thickness, ELM-EZ central subfield: −1.827 μm
  Change in mean (SD) thickness, ELM-EZ mid subfield: −0.106 μm
  Change in mean (SD) thickness, ELM-RPE central subfield: −2.912 μm
  Change in mean (SD) thickness, ELM-RPE foveal center: −6.094 μm
  Change in mean (SD) thickness, ELM-RPE mid subfield: −1.593 μm
  Change in mean (SD) thickness, EZ-RPE central subfield: −1.085 μm
  Change in mean (SD) thickness, EZ-RPE foveal center: −0.407 μm
  Change in mean (SD) thickness, EZ-RPE mid subfield: −1.486 μm
  Change in mean (SD) thickness, Inner retina central subfield: 3.880 μm
  Change in mean (SD) thickness, Inner retina mid subfield: 3.893 μm
  Change in mean (SD) thickness, ONL-EZ central subfield: −6.131 μm
  Change in mean (SD) thickness, ONL-EZ mid subfield: −4.954 μm
  Change in mean (SD) thickness, ONL-RPE central subfield: −7.216 μm
  Change in mean (SD) thickness, ONL-RPE foveal center: −3.488 μm
  Change in mean (SD) thickness, ONL-RPE mid subfield: −6.441 μm
  Change in mean (SD) thickness, RPE-BM central subfield: −4.178 μm
  Change in mean (SD) thickness, RPE-BM foveal center: −8.126 μm
  Change in mean (SD) thickness, RPE-BM mid subfield: −2.086 μm
  Change in mean (SD) thickness, Total retinal central subfield: −3.336 μm
  Change in mean (SD) thickness, Total retinal foveal center: −4.154 μm
  Change in mean (SD) thickness, Total retinal mid subfield: −2.548 μm
  Change in volume, ELM-EZ central subfield: −0.001 mm^3
  Change in volume, ELM-EZ mid subfield: 0.000 mm^3
  Change in volume, ELM-RPE: 0.048 mm^3
  Change in volume, ELM-RPE central subfield: −0.002 mm^3
  Change in volume, ELM-RPE mid subfield: −0.005 mm^3
  Change in volume, EZ-RPE: −0.027 mm^3
  Change in volume, EZ-RPE central subfield: −0.001 mm^3
  Change in volume, EZ-RPE mid subfield: −0.005 mm^3
  Change in volume, ONL-EZ central subfield: −0.005 mm^3
  Change in volume, ONL-EZ mid subfield: −0.016 mm^3
  Change in volume, ONL-RPE: −0.009 mm^3
  Change in volume, ONL-RPE central subfield: −0.005 mm^3
  Change in volume, ONL-RPE mid subfield: −0.020 mm^3
  Change in volume, RPE-BM: −0.006 mm^3
  Change in volume, RPE-BM central subfield: −0.003 mm^3
  Change in volume, RPE-BM mid subfield: −0.007 mm^3
  Change in volume, Total retinal: −0.048 mm^3
  Change in volume, Total retinal central subfield: −0.002 mm^3
  Change in volume, Total retinal mid subfield: −0.008 mm^3
[3]
  Map coverage, 0 μm EZ: 2.574%
  Map coverage, 0 μm RPE-BM: 1.282%
  Map coverage, 10 μm EZ: 2.515%
  Map coverage, 20 μm EZ: 2.431%
  Map coverage, 50 μm RPE-BM: −2.644%
  Map coverage, 150 μm RPE-BM: 2.739%
  Map coverage, 250 μm RPE-BM: −0.006%

From patent US20220031800A1, “PEPTIDES FOR TREATING NON-EXUDATIVE MACULAR DEGENERATION AND OTHER DISORDERS OF THE EYE” (Allegro Pharmaceuticals, LLC, priority 2019, published 2022)
